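Each compound was tested at five concentrations against cells in 96-well plates for 48 hours. TGI: total growth inhibition.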
Legend:
Test in all cases: NCI anticancer screen, dose series, 48 h
SF-268 CNS = system: SF-268 CNS
NCI/ADR-RES ovarian = system: NCI/ADR-RES ovarian
BT-549 breast = system: BT-549 breast
HS 578T breast = system: HS 578T breast
HL-60(TB) leukemia = system: HL-60(TB) leukemia
MDA-N = system: MDA-N
786-0 renal = system: 786-0 renal
EKVX NSCLC = system: EKVX NSCLC
RPMI-8226 leukemia = system: RPMI-8226 leukemia
LOX IMVI melanoma = system: LOX IMVI melanoma
HOP-92 NSCLC = system: HOP-92 NSCLC
COLO 205 colon = system: COLO 205 colon
U251 CNS = system: U251 CNS
MOLT-4 leukemia = system: MOLT-4 leukemia
MDA-MB-435 = system: MDA-MB-435
M14 melanoma = system: M14 melanoma
OVCAR-4 ovarian = system: OVCAR-4 ovarian
NCI-H226 lung = system: NCI-H226 lung
OVCAR-8 ovarian = system: OVCAR-8 ovarian
RXF 393 renal = system: RXF 393 renal
T-47D breast = system: T-47D breast
SNB-19 CNS = system: SNB-19 CNS
PC-3 prostate = system: PC-3 prostate
UACC-62 melanoma = system: UACC-62 melanoma
K-562 leukemia = system: K-562 leukemia
TK-10 renal = system: TK-10 renal
CAKI-1 renal = system: CAKI-1 renal
NCI-H522 lung = system: NCI-H522 lung
NCI-H23 lung = system: NCI-H23 lung
SK-OV-3 ovarian = system: SK-OV-3 ovarian
A498 renal = system: A498 renal
HT29 colon = system: HT29 colon
UO-31 renal = system: UO-31 renal
UACC-257 melanoma = system: UACC-257 melanoma
ACHN renal = system: ACHN renal
OVCAR-5 ovarian = system: OVCAR-5 ovarian
HCT-116 colon = system: HCT-116 colon
SN12C renal = system: SN12C renal
SR leukemia = system: SR leukemia
SW-620 colon = system: SW-620 colon
MALME-3M melanoma = system: MALME-3M melanoma
KM12 colon = system: KM12 colon
SK-MEL-28 melanoma = system: SK-MEL-28 melanoma
A549 NSCLC = system: A549 NSCLC
HCT-15 colon = system: HCT-15 colon
SK-MEL-2 melanoma = system: SK-MEL-2 melanoma
MDA-MB-231 breast = system: MDA-MB-231 breast
DU-145 prostate = system: DU-145 prostate
HOP-62 NSCLC = system: HOP-62 NSCLC
MCF7 breast = system: MCF7 breast
IGROV1 ovarian = system: IGROV1 ovarian
SK-MEL-5 melanoma = system: SK-MEL-5 melanoma
OVCAR-3 ovarian = system: OVCAR-3 ovarian
SF-295 CNS = system: SF-295 CNS
SNB-75 CNS = system: SNB-75 CNS
CCRF-CEM leukemia = system: CCRF-CEM leukemia
NCI-H460 lung = system: NCI-H460 lung
SF-539 CNS = system: SF-539 CNS

In the case of CCC1c2[nH]c3ccccc3c2C[C@H]2C(=O)NC(Cc3c[nH]c4ccccc34)C(=O)N12 (stereo not given in full), the TGI (SF-268 CNS) was greater than 100 µM, the TGI (NCI/ADR-RES ovarian) was 76.6 µM and the TGI (BT-549 breast) was 52.9 µM. For the same compound, the TGI (HS 578T breast) was 49.4 µM, the TGI (HL-60(TB) leukemia) was 46.4 µM and the TGI (MDA-N) was 55.2 µM. For the same compound, the TGI (786-0 renal) was 55.1 µM, the TGI (EKVX NSCLC) was 88.3 µM and the TGI (RPMI-8226 leukemia) was 55.8 µM. For the same compound, the TGI (LOX IMVI melanoma) was 49.3 µM, the TGI (HOP-92 NSCLC) was 74 µM and the TGI (COLO 205 colon) was 36.2 µM. The TGI (U251 CNS) was 34.7 µM, the TGI (MOLT-4 leukemia) was 47.9 µM and the TGI (MDA-MB-435) was 41.1 µM. For the same compound, the TGI (M14 melanoma) was 49.2 µM, the TGI (OVCAR-4 ovarian) was greater than 100 µM and the TGI (NCI-H226 lung) was 82.1 µM. For the same compound, the TGI (OVCAR-8 ovarian) was 94 µM, the TGI (RXF 393 renal) was 37.1 µM and the TGI (T-47D breast) was greater than 100 µM. For the same compound, the TGI (SNB-19 CNS) was greater than 100 µM, the TGI (PC-3 prostate) was 53.1 µM and the TGI (UACC-62 melanoma) was 32.6 µM. For the same compound, the TGI (K-562 leukemia) was greater than 100 µM, the TGI (TK-10 renal) was 80.4 µM and the TGI (CAKI-1 renal) was 67.3 µM. For the same compound, the TGI (NCI-H522 lung) was 55 µM, the TGI (NCI-H23 lung) was 63.2 µM and the TGI (SK-OV-3 ovarian) was greater than 100 µM. For the same compound, the TGI (A498 renal) was greater than 100 µM, the TGI (HT29 colon) was 62.2 µM and the TGI (UO-31 renal) was greater than 100 µM. The TGI (UACC-257 melanoma) was 42.2 µM, the TGI (ACHN renal) was greater than 100 µM and the TGI (OVCAR-5 ovarian) was 58.5 µM. It also gave a TGI (HCT-116 colon) of 35.1 µM, a TGI (SN12C renal) of 52.6 µM and a TGI (SR leukemia) of 49.6 µM. For the same compound, the TGI (SW-620 colon) was greater than 100 µM, the TGI (MALME-3M melanoma) was 36.3 µM and the TGI (KM12 colon) was 43.4 µM. It also gave a TGI (SK-MEL-28 melanoma) greater than 100 µM, a TGI (A549 NSCLC) greater than 100 µM and a TGI (HCT-15 colon) of 78.2 µM. For the same compound, the TGI (SK-MEL-2 melanoma) was 38.6 µM, the TGI (MDA-MB-231 breast) was 38.1 µM and the TGI (DU-145 prostate) was greater than 100 µM. The TGI (HOP-62 NSCLC) was 50.6 µM, the TGI (MCF7 breast) was greater than 100 µM and the TGI (IGROV1 ovarian) was 65.2 µM. The TGI (SK-MEL-5 melanoma) was 31.8 µM, the TGI (OVCAR-3 ovarian) was 37.8 µM and the TGI (SF-295 CNS) was 35 µM.
With NC1(P(=O)(O)O)CCCCC1 the TGI (SF-268 CNS) was greater than 100 µM, the TGI (NCI/ADR-RES ovarian) was greater than 100 µM and the TGI (BT-549 breast) was greater than 100 µM. The TGI (HS 578T breast) was greater than 100 µM, the TGI (HL-60(TB) leukemia) was greater than 100 µM and the TGI (MDA-N) was greater than 100 µM. It also gave a TGI (786-0 renal) greater than 100 µM, a TGI (EKVX NSCLC) greater than 100 µM and a TGI (RPMI-8226 leukemia) greater than 100 µM. It also gave a TGI (LOX IMVI melanoma) greater than 100 µM, a TGI (HOP-92 NSCLC) greater than 100 µM and a TGI (COLO 205 colon) greater than 100 µM. For the same compound, the TGI (U251 CNS) was greater than 100 µM, the TGI (MOLT-4 leukemia) was greater than 100 µM and the TGI (MDA-MB-435) was greater than 100 µM. For the same compound, the TGI (M14 melanoma) was greater than 100 µM, the TGI (OVCAR-4 ovarian) was greater than 100 µM and the TGI (NCI-H226 lung) was greater than 100 µM. The TGI (OVCAR-8 ovarian) was greater than 100 µM, the TGI (RXF 393 renal) was greater than 100 µM and the TGI (T-47D breast) was greater than 100 µM. The TGI (SNB-19 CNS) was greater than 100 µM, the TGI (SNB-75 CNS) was greater than 100 µM and the TGI (PC-3 prostate) was greater than 100 µM. For the same compound, the TGI (UACC-62 melanoma) was greater than 100 µM, the TGI (CCRF-CEM leukemia) was greater than 100 µM and the TGI (K-562 leukemia) was greater than 100 µM. The TGI (TK-10 renal) was greater than 100 µM, the TGI (CAKI-1 renal) was greater than 100 µM and the TGI (NCI-H522 lung) was greater than 100 µM. The TGI (NCI-H23 lung) was greater than 100 µM, the TGI (SK-OV-3 ovarian) was greater than 100 µM and the TGI (A498 renal) was greater than 100 µM. It also gave a TGI (HT29 colon) greater than 100 µM, a TGI (UACC-257 melanoma) greater than 100 µM and a TGI (NCI-H460 lung) greater than 100 µM. The TGI (ACHN renal) was greater than 100 µM, the TGI (OVCAR-5 ovarian) was greater than 100 µM and the TGI (HCT-116 colon) was greater than 100 µM. For the same compound, the TGI (SN12C renal) was greater than 100 µM, the TGI (SR leukemia) was greater than 100 µM and the TGI (SW-620 colon) was greater than 100 µM. For the same compound, the TGI (MALME-3M melanoma) was greater than 100 µM, the TGI (KM12 colon) was greater than 100 µM and the TGI (SK-MEL-28 melanoma) was greater than 100 µM. The TGI (A549 NSCLC) was greater than 100 µM, the TGI (HCT-15 colon) was greater than 100 µM and the TGI (SK-MEL-2 melanoma) was greater than 100 µM. The TGI (MDA-MB-231 breast) was greater than 100 µM, the TGI (DU-145 prostate) was greater than 100 µM and the TGI (HOP-62 NSCLC) was greater than 100 µM. The TGI (MCF7 breast) was greater than 100 µM, the TGI (IGROV1 ovarian) was greater than 100 µM and the TGI (SF-539 CNS) was greater than 100 µM. For the same compound, the TGI (SK-MEL-5 melanoma) was greater than 100 µM, the TGI (OVCAR-3 ovarian) was greater than 100 µM and the TGI (SF-295 CNS) was greater than 100 µM.
COc1ccc(N)c(C(=O)CCNC(C)=O)c1 gave a TGI (SF-268 CNS) greater than 100 µM, a TGI (NCI/ADR-RES ovarian) greater than 100 µM and a TGI (BT-549 breast) greater than 100 µM. For the same compound, the TGI (HS 578T breast) was greater than 100 µM, the TGI (HL-60(TB) leukemia) was greater than 100 µM and the TGI (MDA-N) was greater than 100 µM. It also gave a TGI (786-0 renal) greater than 100 µM, a TGI (EKVX NSCLC) greater than 100 µM and a TGI (RPMI-8226 leukemia) greater than 100 µM. For the same compound, the TGI (LOX IMVI melanoma) was greater than 100 µM, the TGI (HOP-92 NSCLC) was greater than 100 µM and the TGI (COLO 205 colon) was greater than 100 µM. The TGI (U251 CNS) was greater than 100 µM, the TGI (MOLT-4 leukemia) was greater than 100 µM and the TGI (MDA-MB-435) was greater than 100 µM. For the same compound, the TGI (M14 melanoma) was greater than 100 µM, the TGI (OVCAR-4 ovarian) was greater than 100 µM and the TGI (NCI-H226 lung) was greater than 100 µM. For the same compound, the TGI (OVCAR-8 ovarian) was greater than 100 µM, the TGI (RXF 393 renal) was greater than 100 µM and the TGI (T-47D breast) was greater than 100 µM. The TGI (SNB-19 CNS) was greater than 100 µM, the TGI (SNB-75 CNS) was greater than 100 µM and the TGI (PC-3 prostate) was greater than 100 µM. The TGI (UACC-62 melanoma) was greater than 100 µM, the TGI (CCRF-CEM leukemia) was greater than 100 µM and the TGI (TK-10 renal) was greater than 100 µM. The TGI (CAKI-1 renal) was greater than 100 µM, the TGI (NCI-H522 lung) was greater than 100 µM and the TGI (NCI-H23 lung) was greater than 100 µM. The TGI (SK-OV-3 ovarian) was greater than 100 µM, the TGI (A498 renal) was greater than 100 µM and the TGI (HT29 colon) was greater than 100 µM. The TGI (UO-31 renal) was greater than 100 µM, the TGI (UACC-257 melanoma) was greater than 100 µM and the TGI (NCI-H460 lung) was greater than 100 µM. The TGI (ACHN renal) was greater than 100 µM, the TGI (OVCAR-5 ovarian) was greater than 100 µM and the TGI (HCT-116 colon) was greater than 100 µM. It also gave a TGI (SN12C renal) greater than 100 µM, a TGI (SR leukemia) greater than 100 µM and a TGI (SW-620 colon) greater than 100 µM. It also gave a TGI (KM12 colon) greater than 100 µM, a TGI (A549 NSCLC) greater than 100 µM and a TGI (HCT-15 colon) greater than 100 µM. The TGI (SK-MEL-2 melanoma) was greater than 100 µM, the TGI (MDA-MB-231 breast) was greater than 100 µM and the TGI (DU-145 prostate) was greater than 100 µM. The TGI (MCF7 breast) was greater than 100 µM, the TGI (IGROV1 ovarian) was greater than 100 µM and the TGI (SF-539 CNS) was greater than 100 µM. It also gave a TGI (SK-MEL-5 melanoma) greater than 100 µM, a TGI (OVCAR-3 ovarian) greater than 100 µM and a TGI (SF-295 CNS) greater than 100 µM.

Source: PubChem BioAssay (NCI)
